Source: patent US6043024A, “Use of one-dimensional nuclear magnetic resonance to identify ligands to target biomolecules” (Abbott Laboratories, priority 1997, dated 2000)
Like-named read-outs stand apart in the source and are kept apart here.

Columns and labels:
FKBP [1] = target: T1, FKBP (Homo sapiens, UniProt P62942); test: KD estimated from absence of observed chemical shift changes in 15N-HSQC spectra of FKBP; type: binding; settings: compounds 2-9; estimated from absence of chemical shift changes in 15N-HSQC spectra at compound concentrations of 1.0 mM
Protocol: (§1) Recombinant human FK binding protein (FKBP) was prepared as described in Logan et al., J. Mol. Biol., 236: 637-648 (1994).
from the absence of observed chemical shift changes in ^15 N--HSQC
spectra of FKBP at compound concentrations of 1.0 mM, as described in the […]

FKBP [2] = target: T1, FKBP; settings: cited from earlier work
FKBP [3] = target: T1, FKBP; test: Screening for binding using T2-filtered one-dimensional proton NMR spectroscopy; settings: FKBP 50 μM, spin-lock 200 ms, pH 6.5, 300K
Protocol: For all experiments, the T2 -filter spin-lock time was 200 ms with a spin-echo delay of 1 ms, the concentration of compound 1 was 100 μM, the concentration of FKBP was 50 μM, and the buffer was 50 mM PO4, 100 mM NaCl, pH 6.5 (95% D2 O).
For all experiments, the T2 -filter spin-lock time was 200 ms with a spin-echo delay of 1 ms, the concentration of all chemical compounds was 100 μM, the concentration of FKBP was 50 μM, and the buffer was 50 mM PO4, 100 mM NaCl, pH 6.5 (95% D2 O).
Recombinant human FK binding protein (FKBP) was prepared as described in Logan et al., J. Mol. Biol., 236: 637-648 (1994). […]
In FIG. 1A, a CPMG sequence with a spin-lock time of 200 ms is applied to the compound in the absence of FKBP. […] These differences can be detected either by direct inspection, or by a spectral differencing method in which the spectrum of […] (after the spin-lock, FIG. 1C) is subtracted from the spectrum of the compound in the presence of FKBP (also after the spin-lock, FIG. 1B), resulting in the spectrum shown in FIG. 1D. […]
(§2) All NMR spectra were recorded at 300K on a Bruker AMX500 NMR spectrometer. All spectra were recorded with 256 scans and a proton sweep width of 8333.3 Hz and a proton 90 degree pulse length of 7 μs. […] The NMR data were processed and analyzed on Silicon Graphics computers.

FKBP [4] = target: T1, FKBP; test: Screening for binding using diffusion-filtered one-dimensional proton NMR spectroscopy; settings: FKBP 50 μM, gradients 3 and 48 Gauss/cm, diffusion delay 300 ms, pH 6.5, 300K
Protocol: (§3) For all experiments, low and high gradient strengths correspond to 3 and 48 Gauss/cm, respectively. The high gradient strength was sufficient to eliminate the residual HDO signal in the sample. A diffusion delay time of 300 ms was used, the concentration of all chemical compounds was 100 μM, the concentration of FKBP was 50 μM, and the buffer was 50 mM PO4, 100 mM NaCl, pH 6.5 (95% D2 O).
as §3, with “48 Gauss/cm.” for “48 Gauss/cm,”, “[…]” for “50 mM”
as §1
The pulse sequence employed for exploiting the changes in diffusion rates of potential ligands in the presence of the target molecule that described by S. J. Gibbs and C. S. Johnson, Jr. J. Main. Reson. […]
as §2

[5] = mixture of compounds 1-9, each 100 μM

T1 sequence (P62942 whole entry): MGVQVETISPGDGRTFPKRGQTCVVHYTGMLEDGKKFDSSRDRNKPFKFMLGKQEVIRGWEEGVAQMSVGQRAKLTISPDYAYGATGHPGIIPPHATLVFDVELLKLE

Row | Structure (SMILES) | Kd (FKBP [1]) [mM] | further results
1 | Oc1cccc(O)c1 [Compound 5] | > 10 | 
2 | O=C(O)c1ccc(-c2cccs2)s1 [Compound 8] | > 10 | 
3 | c1ccc(-c2ncc[nH]2)cc1 [Compound 1] |  | Kd (FKBP [2]; compound 1, obtained from S. Shuker, et al., Science 274:1531-1534 (1996), read-out: KD): 0.2 mM; Kd (FKBP [2]; read-out: affinity (binds to FKBP)): 0.2 mM; difference spectrum (FIG. 2E), T2-filtered, mixture of compounds 1-9 (FKBP [3]; [5]): positive peaks which correspond to the positions of the reonances of compound 1 in the absence of FKBP; ligand signals after the spin lock time in the presence of FKBP (FKBP [3]; single compound, T2-filter, compound 100 μM): significantly reduced; difference spectrum (FIG. 5E), diffusion-filtered, mixture of compounds 1-9 (FKBP [4]; [5]): positive resonances at the chemical shifts for compound 1 in the absence of FKBP; ligand binding detected using diffusion filters (FIGS. 4A-4E) (FKBP [4]; single compound 100 μM): demonstrated for FKBP binding to compound 1
4 | O=c1oc2ccccc2c(O)c1-c1ccccc1 [Compound 9] | > 10 | 
5 | COc1ccc(-c2ccc(C(=O)O)cc2)cc1 [Compound 7] | > 10 | 
6 | COc1cccc(O)c1 [Compound 3] | > 10 | 
7 | Nc1cc(-c2ccco2)n[nH]1 [Compound 6] | > 10 | 
8 | OC(c1ccccc1)c1ccccc1 [Compound 4] | > 10 | 
9 | O=C1CCc2ccccc2O1 [Compound 2] | > 10 | 
